B1: SV40 large T antigen: transiently over-expressed inhibitor of both p53 and Rb pathways (protein, UniProt P03070 1-708, looked up)
Large T antigen: MDKVLNREESLQLMDLLGLERSAWGNIPLMRKAYLKKCKEFHPDKGGDEEKMKKMNTLYKKMEDGVKYAHQPDFGGFWDATEIPTYGTDEWEQWWNAFNEENLFCSEEMPSSDDEATADSQHSTPPKKKRKVEDPKDFPSELLSFLSHAVFSNRTLACFAIYTTKEKAALLYKKIMEKYSVTFISRHNSYNHNILFFLTPHRHRVSAINNYAQKLCTFSFLICKGVNKEYLMYSALTRDPFSVIEESLPGGLKEHDFNPEEAEETKQVSWKLVTEYAMETKCDDVLLLLGMYLEFQYSFEMCLKCIKKEQPSHYKYHEKHYANAAIFADSKNQKTICQQAVDTVLAKKRVDSLQLTREQMLTNRFNDLLDRMDIMFGSTGSADIEEWMAGVAWLHCLLPKMDSVVYDFLKCMVYNIPKKRYWLFKGPIDSGKTTLAAALLELCGGKALNVNLPLDRLNFELGVAIDQFLVVFEDVKGTGGESRDLPSGQGINNLDNLRDYLDGSVKVNLEKKHLNKRTQIFPPGIVTMNEYSVPKTLQARFVKQIDFRPKDYLKHCLERSEFLLEKRIIQSGIALLLMLIWYRPVAEFAQSIQSRIVEWKERLDKEFSLSVYQKMKFNVAMGIGVLDWLRNSDDDDEDSQENADKNEDGGEKNMEDSGHETGIDSQSQGSFQAPQSSQSVHDHNQPYHICRGFTCFKKPPTPPPEPET

Experiments:
PERV pol gene = experiment: PERV pol targeting (editing) efficiency in FFF3 cells, deep sequencing of PERV pol loci; format: cell-based, porcine; conditions: for average targeting efficiency (PERV editing efficiency) of FFF3 populations: applied during genetic modification with CRISPR-Cas9
Experimental: Similar to the procedure previously described by Yang et al, 2015, Science, 80:350, a DNA fragment encoding U6-gRNA1-U6-gRNA2 (Genewiz) was synthesized and incorporated into a previously constructed PiggyBac-cas9 plasmid. To establish the FFF3 cell lines with PiggyBac-Cas9/2gRNAs integration, 5×10^5 FFF3 cells were transfected with 16 μg PiggyBac-Cas9/2gRNAs plasmid and 4 μg Super PiggyBac Transposase plasmid (System Biosciences) using the Neon transfection system according to the instructions in the commercial kits (Thermo Fisher Scientific). To select the cells carrying the integrated construct, 2 μg/mL puromycin was applied to the transfected cells. Based on the negative control, in which puromycin was applied to wild type FFF3 cells, it was determined that the puromycin selection was completed in 4 days. The FFF3-PiggyBac cell line was maintained with 2 μg/mL puromycin hereafter and a 2 μg/ml doxycycline was applied to induce Cas9 expression of the doxycycline-inducible FFF3-PiggyBac cell line.
To avoid the Cas9-consistent expression in the FFF3 cell line, PiggyBac-Cas9/2gRNAs excision from the FFF3 genome was conducted by transfecting 5×10^5 cells with 3 μg PiggyBac Excision-Only Transposase vector using Lipofectamine 2000 reagent. The PiggyBac-Cas9/2gRNAs-excised FFF3 cells were then single-cell sorted into 96-well plates for clone growth and genotyping.
First, puromycin selection followed by PiggyBac excision was conducted on the FFF3, PiggyBac-Cas9/2gRNA cell line. Then the cells were single-cell sorted into both 96-well PCR plates for direct genotyping and 96-well cell culture plates for colony growth.
To genotype single FF cells without clonal expansion, the PERV loci from sorted single cells were directly amplified according to a previously reported single-cell genotyping protocol. Briefly, the single cells were sorted into 96-well PCR plates with each well carrying a 5 μl lysis mixture, which contained 0.51 μl 10×KAPA express extract buffer (KAPA Biosystems), 0.1 μl of 1 U/μl KAPA Express Extract Enzyme and 4.6 μl water. The lysis reaction was incubated at 75° C. for 15 min and the reaction was subsequently inactivated at 95° C. for 5 min. All reactions were then added to 20 μl PCR reactions containing 1×KAPA 2G fast (KAPA Biosystems), 0.2 μM PERV Illumina primers (Methods Table 2). Reactions were incubated at 95° C. for 3 min followed by 25 cycles of 95° C., 20 s; 59° C., 20 s and 72° C., 10 s. To add the Illumina sequence adaptors, 3 μl of reaction products were then added to 20 μl of PCR mix containing 1×KAPA 2G fast(KAPA Biosystems) and 0.3 μM primers carrying Illumina sequence adaptors. Reactions were incubated at 95° C. for 3 min followed by 10 cycles of 95° C., 20 s; 59° C., 20 s and 72° C., 10 s. PCR products were checked on EX 2% gels (Invitrogen), followed by the recovery of 300-400 bp products from the gel. These products were then mixed at roughly the same amount, purified (QIAquick Gel Extraction Kit), and sequenced with MiSeq Personal Sequencer (Illumina). Deep sequencing data was analyzed, and the PERV editing efficiency using CRISPR-GA was determined (Denner et al., 2016, Viruses, 8:215).
As previously described in Yang et al. (6), a custom pipeline was built to estimate the efficiency of PERV inactivation. Briefly, the pol gene was amplified and sequenced via Illumina Next Generation Sequencing using PE250 or PE300. First, the two overlapping reads using PEAR (15) were combined and mapped to the reference region using BLAT. After mapping, the reads were grouped into sets containing specific combinations of haplotypes, and indel types. Read sets with representation lower than 0.5% of the total number of mapped reads were discarded. Finally, the mapping output was parsed to call the different insertions and deletions, as described in Güell et al (16).

[1] = clones grown from sorted single cells

Molecule	average targeting efficiency (PERV editing efficiency) of FFF3 populations (PERV pol gene)	PERV targeting efficiency among treatments with different dosages (PERV pol gene; FFF3 cells, seven days of treatment)	cytotoxicity (FFF3 cells)	increase of the ratio of >80% PERV-ko clones compared with the untreated group (PERV pol gene; [1]) [folds]	increase of the ratio of >90% PERV-ko clones compared with the untreated group (PERV pol gene; [1]) [folds]
Cc1ccc(C(=O)Cn2c3c(sc2=N)CCCC3)cc1 [PFTα, pifithrin alpha, reference compound]	did not increased				
basic fibroblast growth factor [bFGF]	did not increased				
Bcl-2: an apoptosis inhibitor, over-expressed	did not increase	No significant difference	Dose-dependent cytotoxicity		
B1	increased			3.75	5.06

Source: patent publication US12058986B2, “Method for generating a genetically modified pig with inactivated porcine endogenous retrovirus (PERV) elements” (eGenesis, Inc., priority 2017, dated 2024)
